Laboratory results as given in the NIST ThermoML archive (doi:10.1016/j.jct.2015.05.013).

Assay: cn = amount concentration of the nth substance listed, in mol/dm3
Conditions: 298.15 K, 101.3 kPa, Liquid, Taylor dispersion method

COC(=O)[C@@H](N)Cc1cnc[nH]1.Cl.Cl [methyl L-histidinate dihydrochloride] + O
Conditions	binary diffusion coefficient [m2/s]
c1 = 0.001	1.05e-09
c1 = 0.005	1.01e-09
c1 = 0.01	9.82e-10
c1 = 0.02	9.6e-10
c1 = 0.05	9.21e-10
c1 = 0.1	8.61e-10
